Where two headings read alike, the source gives them in different places.
Tests used:
OX2 = target: T1, OX2 (Homo sapiens, UniProt O43614); experiment: Measurement of orexin receptor-binding ability ([125I]-OX-A, cell membranes, OX2); set-up: expressed in transfected cells; host or cells: CHO cells (membrane preparation); conditions: membranes of recombinant CHO cells expressing OX2, 0.2 nM [125I]-OX-A
T1 sequence (O43614 1-444): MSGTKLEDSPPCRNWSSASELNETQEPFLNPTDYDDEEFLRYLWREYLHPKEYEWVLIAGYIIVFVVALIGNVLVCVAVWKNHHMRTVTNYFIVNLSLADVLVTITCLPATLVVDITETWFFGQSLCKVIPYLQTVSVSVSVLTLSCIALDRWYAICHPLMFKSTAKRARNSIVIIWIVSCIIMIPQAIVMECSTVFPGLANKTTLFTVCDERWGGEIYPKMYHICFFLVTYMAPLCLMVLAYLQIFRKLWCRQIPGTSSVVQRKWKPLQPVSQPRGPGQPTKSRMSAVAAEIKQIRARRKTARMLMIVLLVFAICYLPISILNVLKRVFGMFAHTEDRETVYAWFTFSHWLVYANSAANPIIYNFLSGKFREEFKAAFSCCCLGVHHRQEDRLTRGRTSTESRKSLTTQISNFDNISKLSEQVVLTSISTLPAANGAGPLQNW
Method: (§1) 1. Measurement of Orexin Receptor-Binding Ability
(§2) The assay was carried out using a 96-well Wheat Germ Agglutinin Flash Plate (PerkinElmer). The volume in a single assay well was 100 ul, and the composition of the reaction solution was as follows:
(§3) 25 mM HEPES (pH 7.5), 1 mM CaCl2, 4.5 mM MgCl2, 0.5% BSA (bovine serum albumin), 0.1% sodium azide, 0.05% Tween-20, and 0.2% DMSO.
(§4) Cell membranes were prepared from recombinant CHO cells that expressed OX2 or OX1. The cell membranes were used in an amount of 5 μg protein/assay. […] Finally, the radioactivity of each well was measured using a scintillation counter (TopCount, PerkinElmer).

OX1 = target: T2, OX1 (Homo sapiens, UniProt O43613); experiment: Measurement of orexin receptor-binding ability ([125I]-OX-A, cell membranes, OX1); set-up: expressed in transfected cells; host or cells: CHO cells (membrane preparation)
T2 sequence (O43613 1-425): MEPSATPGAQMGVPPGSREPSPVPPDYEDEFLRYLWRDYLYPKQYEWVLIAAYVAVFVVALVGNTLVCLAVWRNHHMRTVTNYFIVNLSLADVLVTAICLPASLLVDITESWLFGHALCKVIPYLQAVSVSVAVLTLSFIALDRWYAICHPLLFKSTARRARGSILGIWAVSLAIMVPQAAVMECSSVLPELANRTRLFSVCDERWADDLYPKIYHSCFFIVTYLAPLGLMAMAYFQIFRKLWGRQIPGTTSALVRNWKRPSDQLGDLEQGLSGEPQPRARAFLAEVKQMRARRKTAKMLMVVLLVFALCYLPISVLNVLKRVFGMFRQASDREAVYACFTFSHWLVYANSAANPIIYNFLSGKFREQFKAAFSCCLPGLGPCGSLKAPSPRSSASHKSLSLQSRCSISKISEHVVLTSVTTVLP
Method: as §1, §2, §3, §4

[1] = membranes of recombinant CHO cells expressing OX1, 0.2 nM [125I]-OX-A, read-out: OX1 (IC50)

Row | SMILES | IC50 (OX2; OX2 (IC50) nM) | IC50 (OX1) | IC50 (OX2; read-out: OX2 (IC50)) | IC50 (OX1; [1])
1 | COc1ccc([C@]2(COc3cnc(C)nc3C)C[C@H]2C(=O)Nc2ccc(F)cn2)cc1F [Example 322, (1R,2S)-2-{[(2,4-dimethylpyrimidin-5-yl)oxy]methyl}-2-(3-fluoro-4-methoxyphenyl)-N-(5-fluoropyridin-2-yl)cyclopropanecarboxamide] | 7 nM | 30 nM |  | 
2 | Cc1nc(C)[n+]([O-])cc1OC[C@@]1(c2ccccc2)C[C@H]1C(=O)Nc1ccc(F)nc1 [Example 81, (1R,2S)-2-[(2,4-dimethyl-1-oxopyrimidin-5-yl)oxymethyl]-N-(6-fluoropyridin-3-yl)-2-phenylcyclopropanecarboxamide] |  |  | 63 nM | 2590 nM
3 | Cc1ncc(OCC2(c3ccccc3Cl)CC2C(=O)Nc2ccc(Cl)cn2)c(C)n1 (stereo not shown) [Example 152] | 36 nM | 58 nM |  | 
4 | Cc1ncc(OC[C@@]2(c3ccc(F)c(F)c3)C[C@H]2C(=O)Nc2ccc(F)cc2)c(C)n1 [Example 165, (1R,2S)-2-(3,4-difluorophenyl)-2-{[(2,4-dimethylpyrimidin-5-yl)oxy]methyl}-N-(4-fluorophenyl)cyclopropanecarboxamide] |  |  | 7 nM | 29 nM
5 | COCc1nc(C)ncc1OC[C@@]1(c2ccccc2)C[C@H]1C(=O)Nc1nc(C)cs1 [Example 142] |  |  | 36 nM | 331 nM
6 | COc1cc(NC(=O)[C@@H]2C[C@@]2(COc2cnc(C)nc2C)c2ccc(F)cc2)ncc1F [Example 104] |  |  | 4.3 nM | 4 nM
7 | Cc1ncc(OC[C@@]2(c3ccccc3)C[C@H]2C(=O)Nc2ccc(F)cc2)c(C)n1 [Example 77, (1R,2S)-2-{[(2,4-dimethylpyrimidin-5-yl)oxy]methyl}-N-(4-fluorophenyl)-2-phenylcyclopropanecarboxamide] |  |  | 24 nM | 41 nM
8 | Cc1ncc(OC[C@@]2(c3cccc(F)c3)C[C@H]2C(=O)Nc2ccc(F)nc2)c(C)n1 [Example 88] | 13 nM | 267 nM |  | 
9 | COCc1nc(C)ncc1OC[C@@]1(c2ccc(F)c(F)c2)C[C@H]1C(=O)Nc1cc(C)c(F)cn1 [Example 212, (1R,2S)-2-(3,4-difluorophenyl)-N-(5-fluoro-4-methylpyridin-2-yl)-2-{[(4-methoxymethyl-2-methylpyrimidin-5-yl)oxy]methyl}cyclopropanecarboxamide] |  |  | 7 nM | 4 nM
10 | COCc1nc(C)ncc1OC[C@@]1(c2cccc(Cl)c2)C[C@H]1C(=O)Nc1ccccn1 [Example 225, (1R,2S)-2-(3-chlorophenyl)-2-{[(4-methoxymethyl-2-methylpyrimidin-5-yl)oxy]methyl}-N-(pyridin-2-yl)cyclopropanecarboxamide] |  |  | 3 nM | 6 nM
11 | Cc1ncc(OCC2(c3ccccc3F)CC2C(=O)Nc2ccc(Cl)cn2)c(C)n1 (stereo not shown) [Example 262] | 51 nM | 85 nM |  | 
12 | Cc1ncc(OC[C@@]2(c3ccc(F)cc3)C[C@H]2C(=O)Nc2cc(C)c(F)cn2)c(C)n1 [Example 111, (1R,2S)-2-{[(2,4-dimethylpyrimidin-5-yl)oxy]methyl}-N-(5-fluoro-4-methylpyridin-2-yl)-2-(4-fluorophenyl)cyclopropanecarboxamide] |  |  | 6 nM | 34 nM
13 | Cc1ncc(OC[C@@]2(c3ccccc3)C[C@H]2C(=O)Nc2ccc(C(F)(F)F)cn2)c(C)n1 [Example 5] |  |  | 38 nM | 145 nM
14 | COc1ccnc(NC(=O)[C@@H]2C[C@@]2(COc2cnc(C)nc2C)c2ccccc2)c1 [Example 50] | 13 nM | 12 nM |  | 
15 | Cc1ncc(OC[C@@]2(c3ccccc3)C[C@H]2C(=O)Nc2cccc(CCO)c2)c(C)n1 [Example 40] |  |  | 9 nM | 172 nM
16 | Cc1ncc(OC[C@@]2(c3cc(F)cc(F)c3)C[C@H]2C(=O)Nc2ccc(F)cn2)c(C)n1 [Example 133, (1R,2S)-2-(3,5-difluorophenyl)-2-{[(2,4-dimethylpyrimidin-5-yl)oxy]methyl}-N-(5-fluoropyridin-2-yl)cyclopropanecarboxamide] | 3 nM | 7 nM |  | 

Row | SMILES | IC50 (OX2; OX2 (IC50) nM) | IC50 (OX1) | IC50 (OX2; read-out: OX2 (IC50)) | IC50 (OX1; [1])
17 | Cc1ncc(OCC2(c3cccc(Cl)c3)CC2C(=O)Nc2ccc(C#N)cn2)c(C)n1 (stereo not shown) [Example 156] | 13 nM | 42 nM |  | 
18 | COCc1nc(C)ncc1OC[C@@]1(c2cc(F)cc(F)c2)C[C@H]1C(=O)Nc1ccc(F)c(F)c1 [Example 221, (1R,2S)-N-(3,4-difluorophenyl)-2-(3,5-difluorophenyl)-2-{[(4-methoxymethyl-2-methylpyrimidin-5-yl)oxy]methyl}cyclopropanecarboxamide] |  |  | 3 nM | < 2 nM
19 | Cc1ncc(N(C)C[C@@]2(c3ccccc3)C[C@H]2C(=O)Nc2ccc(F)cc2)c(C)n1 [Example 300] |  |  | 34 nM | 495 nM
20 | Cc1ncc(OCC2(c3ccc(F)cc3)CC2C(=O)Nc2ccc(C#N)cn2)c(C)n1 (stereo not shown) [Example 101] |  |  | 84 nM | 290 nM
21 | Cc1ncc(OCC2(c3cccc(Cl)c3)CC2C(=O)Nc2ccc(F)cn2)c(C)n1 (stereo not shown) [Example 154] | 7 nM | 6 nM |  | 
22 | COc1cccc([C@]2(COc3cnc(C)nc3C)C[C@H]2C(=O)Nc2ccc(F)c(F)c2)c1 [Example 190, (1R,2S)-N-(3,4-difluorophenyl)-2-{[(2,4-dimethylpyrimidin-5-yl)oxy]methyl}-2-(3-methoxyphenyl)cyclopropanecarboxamide] |  |  | 5 nM | 11 nM
23 | COCc1nc(C)ncc1OC[C@@]1(c2cccc(F)c2)C[C@H]1C(=O)Nc1cccc(F)c1 [Example 195, (1R,2S)-N,2-bis(3-fluorophenyl)-2-{[(4-methoxymethyl-2-methylpyrimidin-5-yl)oxy]methyl}cyclopropanecarboxamide] |  |  | 3 nM | 6 nM
24 | Cc1ncc(CC[C@@]2(c3ccccc3)C[C@H]2C(=O)Nc2cc(C)c(F)cn2)c(C)n1 [Example 292, (1R,2R)-2-[2-(2,4-dimethylpyrimidin-5-yl)ethyl]-N-(5-fluoro-4-methylpyridin-2-yl)-2-phenylcyclopropanecarboxamide] |  |  | 34 nM | 240 nM
25 | Cc1ncc(OCC2(c3cccc(F)c3F)CC2C(=O)Nc2ccc(F)cn2)c(C)n1 (stereo not shown) [Example 162, 2-(2,3-difluorophenyl)-2-{[(2,4-dimethylpyrimidin-5-yl)oxy]methyl}-N-(5-fluoropyridin-2-yl)cyclopropanecarboxamide] | 13 nM | 65 nM |  | 
26 | Cc1ncc(OC[C@@]2(c3ccccc3)C[C@H]2C(=O)Nc2cc(C#N)ccn2)c(C)n1 [Example 46] |  |  | 43 nM | 423 nM
27 | COCc1cc(NC(=O)[C@@H]2C[C@@]2(COc2cnc(C)nc2C)c2cccc(F)c2)ncc1F [Example 86, (1R,2S)-2-{[(2,4-dimethylpyrimidin-5-yl)oxy]methyl}-N-(5-fluoro-4-methoxymethylpyridin-2-yl)-2-(3-fluorophenyl)cyclopropanecarboxamide] | 6.1 nM | 6.3 nM |  | 
28 | Cc1ncc(N(C)C[C@@]2(c3cccc(F)c3)C[C@H]2C(=O)Nc2cc(C)c(Cl)cn2)c(C)n1 [Example 295, (1R,2S)-N-(5-chloro-4-methylpyridin-2-yl)-2-[N-(2,4-dimethylpyrimidin-5-yl)methylaminomethyl]-2-(3-fluorophenyl)cyclopropanecarboxamide] |  |  | 6 nM | 5 nM
29 | CCc1ncc(OC[C@@]2(c3ccccc3)C[C@H]2C(=O)Nc2ccc(Cl)cn2)c(C)n1 [Example 128, (1R,2S)-N-(5-chloropyridin-2-yl)-2-{[(2-ethyl-4-methylpyrimidin-5-yl)oxy]methyl}-2-phenylcyclopropanecarboxamide] |  |  | 75 nM | 231 nM
30 | Cc1ncc(OC[C@@]2(c3ccccc3)C[C@H]2C(=O)Nc2ccc(Cl)c(C#N)c2)c(C)n1 [Example 27] |  |  | 15 nM | 169 nM
31 | CC(=O)c1cccc(NC(=O)[C@@H]2C[C@@]2(COc2cnc(C)nc2C)c2ccccc2)c1 [Example 37] | 8 nM | 41 nM |  | 
32 | Cc1ncc(OC[C@@]2(c3ccccc3)C[C@H]2C(=O)Nc2ccc(F)nc2)c(C)n1 [Example 53] |  |  | 18 nM | 261 nM

Source: US8268848B2, “Cyclopropane compound” (Eisai R&D Management Co., Ltd., priority 2010, dated 2012)
